Measurements as given in patent US20250101041A1, “POSITIVE ALLOSTERIC MODULATORS OF THE MUSCARINIC ACETYLCHOLINE RECEPTOR M4” (Vanderbilt University, priority 2022, published 2025).
Blank lines part the entries; values can stand above or below the molecule they belong to.

How the values were obtained:
human mAChR M4 = biological target: T1, human mAChR M4 (Homo sapiens, UniProt P08173); assay: mAChR M4 cell-based functional assay: calcium mobilization (Fluo-4, FDSS), potentiation of EC20 acetylcholine response in hM4-Gqi5 CHO-K1 cells; conditions: human M4; for Emax at 30 µM: CHO-K1, % ACh maximum at 30 μM
T1 construct: expressed in transfected cells; host or cells: CHO-K1 (American Type Culture Collection), stably expressing hM4 and Gqi5
T1 sequence (P08173 1-479): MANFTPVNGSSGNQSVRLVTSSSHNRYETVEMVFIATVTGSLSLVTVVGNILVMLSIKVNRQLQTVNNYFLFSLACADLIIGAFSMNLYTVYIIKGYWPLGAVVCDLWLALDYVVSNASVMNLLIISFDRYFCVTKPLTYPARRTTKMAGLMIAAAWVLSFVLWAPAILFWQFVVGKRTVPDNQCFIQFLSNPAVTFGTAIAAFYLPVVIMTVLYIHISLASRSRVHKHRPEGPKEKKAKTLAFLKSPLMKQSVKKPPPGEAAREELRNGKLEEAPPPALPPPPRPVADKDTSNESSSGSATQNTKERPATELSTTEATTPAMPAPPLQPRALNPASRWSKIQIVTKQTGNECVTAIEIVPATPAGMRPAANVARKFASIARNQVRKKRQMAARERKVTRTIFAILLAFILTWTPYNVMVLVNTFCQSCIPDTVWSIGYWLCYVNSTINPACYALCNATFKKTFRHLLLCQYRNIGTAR
Summary of the method: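 Readout is the fluorescence-ratio rise at 1 Hz on FDSS, with PAM activity taken as concentration-dependent enhancement of the EC20 acetylcholine response, fitted four-parameter for EC50/Emax. hM4-Gqi5 CHO-K1 cells carried Fluo-4 AM dye; test compounds (11 points, 1:3) preceded EC20 acetylcholine additions at 144 s and 230 s.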

[1] = patients treated with AChE inhibitors such as tacrine; cited from earlier work
[2] = Alzheimer's disease patients; cited from earlier work
[3] = cited from earlier work

Emax at 30 µM (human mAChR M4): 54% | EC50 (human mAChR M4; potentiation of EC20 acetylcholine response, calcium mobilization): 1.06 µM
SMILES: Cc1c(N2CCc3ncc(OCCN4CCOC4=O)cc3C2)nn2c(=O)ccnc2c1C [Compound 3-4, 3-(2-((6-(8,9-Dimethyl-4-oxo-4H-pyrimido[1,2-b]pyridazin-7-yl)-5,6,7,8-tetrahydro-1,6-naphthyridin-3-yl)oxy)ethyl)oxazolidin-2-one]

Emax at 30 µM (human mAChR M4): 77%
SMILES: Cc1c(N2CCc3ncc(P(C)(C)=O)cc3C2)nn2c(=O)ccnc2c1C [Compound 3-5, 7-(3-(Dimethylphosphoryl)-7,8-dihydro-1,6-naphthyridin-6(5H)-yl)-8,9-dimethyl-4H-pyrimido[1,2-b]pyridazin-4-one]

SMILES: Nc1c2c(nc3ccccc13)CCCC2 [tacrine]
patients with elevated liver transaminases (hepatotoxicity) [1]: about 30%

SMILES: CCCCCCOc1nsnc1C1=CCCN(C)C1 [xanomeline]
psychotic behavioral symptoms such as delusions, suspiciousness, vocal outbursts, and hallucinations [2]: reduce psychotic behavioral symptoms | treatment induced side effects [2]: gastrointestinal effects | catalepsy ([3]; animal models): without causing catalepsy | activity in animal models with similar profiles to known antipsychotic drugs [3]: active
